Like-named read-outs stand apart in the source and are kept apart here. Positions of bridges follow the written chain, without caps; N, C: chain ends. Non-standard residues stand in square brackets, D forms with d. Residues, ends and D or L forms follow the SMILES beside them. *: point of attachment. Malonyl(2,2-Me2,histaminyl) = CC(C)(C(=O)NCCc1cnc[nH]1)C(=O)*; Ala(1H-tetrazol-5-yl) = N[C@@H](Cc1nnn[nH]1)C(=O)O; αMePhe(2-F) = C[C@](N)(Cc1ccccc1F)C(=O)O; Nle = CCCC[C@H](N)C(=O)O; Aib = CC(C)(N)C(=O)O
Key:
Type in all cases: cell-based
mouse GLP2 receptor = target: T1, mouse GLP2 receptor (Mus musculus, UniProt Q5IXF8); assay: cAMP accumulation assay, functional agonism of mouse GLP2 receptor
T1 construct: expressed in transfected cells; host or cells: HEK cells, transient transfection with GeneJuice
T1 sequence (Q5IXF8 1-512): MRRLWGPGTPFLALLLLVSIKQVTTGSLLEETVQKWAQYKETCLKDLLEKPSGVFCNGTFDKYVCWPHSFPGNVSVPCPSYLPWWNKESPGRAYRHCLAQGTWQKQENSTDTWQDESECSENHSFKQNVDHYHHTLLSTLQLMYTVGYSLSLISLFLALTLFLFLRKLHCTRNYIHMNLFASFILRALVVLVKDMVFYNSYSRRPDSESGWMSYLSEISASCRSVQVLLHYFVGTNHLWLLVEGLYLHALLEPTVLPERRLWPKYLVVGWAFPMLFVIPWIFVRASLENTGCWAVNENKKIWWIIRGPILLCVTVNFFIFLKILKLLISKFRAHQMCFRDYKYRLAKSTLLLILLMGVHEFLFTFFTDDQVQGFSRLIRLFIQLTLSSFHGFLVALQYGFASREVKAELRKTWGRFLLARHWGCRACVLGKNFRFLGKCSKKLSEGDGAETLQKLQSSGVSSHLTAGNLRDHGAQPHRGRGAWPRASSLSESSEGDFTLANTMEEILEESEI
Experimental: CAMP production upon agonist stimulation of mouse GLP2 or GLP1 receptors was assessed utilizing HiRange cAMP kit (Cisbio). In brief, HEK cells were transiently transfected for 24 hours with cDNA using GeneJuice Transfection reagent (EMD Millipore) and frozen at −80° C. for later use in the assay. On the day, various concentrations of compounds were dispensed using ECHO-555 (LabCyte) to a total volume of 100 nl into a low volume 384-well Proxi plate (Perkin Elmer) followed by addition of 10 μl of cell suspension delivering 8000 cells per well. Cells were prepared in the assay buffer (HBSS (Lonza) supplemented with 0.5 mM IBMX (Tocris)). After 45 min incubation at 37° C., the reaction was stopped by addition of the HTRF detection reagents in the lysis buffer provided in the kit. Following 1-hour incubation at RT, plates were read on Pherastar FS (BMG Labtech, Inc.) using standard HTRF settings. Dotmatics Studies software was used for calculation of pEC50 values by fitting data to a four-parameter concentration response curve.

human GLP2 receptor = target: T2, human GLP2 receptor (Homo sapiens, UniProt O95838); assay: cAMP accumulation assay, functional agonism of human GLP2 receptor; settings: HEK cells infected with human GLP2 receptor BacMam virus, HTRF cAMP; for Emax: HEK293, read-out: Human GLP-2R agonist cAMP Emax; for EC50: read-out: Human GLP-2R agonist cAMP pEC50 (converted)
T2 construct: expressed in transfected cells; host or cells: HEK cells, BacMam virus transduction
T2 sequence (O95838 1-553): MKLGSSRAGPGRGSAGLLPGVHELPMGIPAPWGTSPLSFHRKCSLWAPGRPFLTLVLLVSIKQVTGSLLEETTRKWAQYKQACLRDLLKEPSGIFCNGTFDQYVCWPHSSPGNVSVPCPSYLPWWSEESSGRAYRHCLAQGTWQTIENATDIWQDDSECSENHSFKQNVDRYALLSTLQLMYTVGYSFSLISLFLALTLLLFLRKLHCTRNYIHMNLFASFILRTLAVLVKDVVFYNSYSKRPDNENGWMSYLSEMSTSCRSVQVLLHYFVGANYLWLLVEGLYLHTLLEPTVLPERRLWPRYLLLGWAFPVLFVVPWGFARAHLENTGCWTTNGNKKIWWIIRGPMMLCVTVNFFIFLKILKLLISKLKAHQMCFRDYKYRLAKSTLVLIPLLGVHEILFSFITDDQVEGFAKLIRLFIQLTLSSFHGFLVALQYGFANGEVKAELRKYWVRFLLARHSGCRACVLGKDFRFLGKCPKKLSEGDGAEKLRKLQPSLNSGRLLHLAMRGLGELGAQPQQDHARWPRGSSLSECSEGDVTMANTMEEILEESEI
In short: (§1)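 Steps: infect HEK cells with human GLP1 or GLP2 receptor BacMam for 24 hours; freeze; resuspend in HBSS with 0.5 mM IBMX; incubate with agonist 45 min at 37° C; lyse with HTRF detection reagents and read cAMP.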

human GLP1 receptor = target: T3, human GLP1 receptor (Homo sapiens, UniProt P43220); assay: cAMP accumulation assay, functional agonism of human GLP1 receptor; settings: HEK cells infected with human GLP1 receptor BacMam virus, HTRF cAMP; for Emax: HEK293, read-out: Human GLP-1R agonist cAMP Emax; for EC50: read-out: Human GLP-1R agonist cAMP pEC50 (converted)
T3 construct: expressed in transfected cells; host or cells: HEK cells, BacMam virus transduction
In short: as §1

[1] = HEK293, read-out: Mouse GLP-2R agonist cAMP Emax
[2] = HEK293, HEK cells transiently transfected with mouse GLP2 receptor, HTRF cAMP, read-out: Mouse GLP-2R agonist cAMP Emax
[3] = HEK cells transiently transfected with mouse GLP2 receptor, HTRF cAMP, read-out: Mouse GLP-2R agonist cAMP pEC50 (converted)

T3 sequence (P43220 24-463): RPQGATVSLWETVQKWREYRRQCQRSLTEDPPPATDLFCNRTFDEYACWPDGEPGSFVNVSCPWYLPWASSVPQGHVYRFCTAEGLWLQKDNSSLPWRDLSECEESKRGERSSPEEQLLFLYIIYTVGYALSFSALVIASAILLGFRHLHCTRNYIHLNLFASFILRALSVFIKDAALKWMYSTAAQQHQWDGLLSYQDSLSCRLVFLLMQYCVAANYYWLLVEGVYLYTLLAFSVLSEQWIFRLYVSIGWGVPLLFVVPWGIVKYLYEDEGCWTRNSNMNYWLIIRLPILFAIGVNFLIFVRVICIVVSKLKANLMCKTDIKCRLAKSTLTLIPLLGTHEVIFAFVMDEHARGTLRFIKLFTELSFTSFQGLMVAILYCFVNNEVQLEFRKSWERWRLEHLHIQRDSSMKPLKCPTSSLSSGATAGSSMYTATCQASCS

Row | SMILES | EC50 (mouse GLP2 receptor) [nM] | Emax (mouse GLP2 receptor; [1]) [%] | Emax (human GLP2 receptor) [%] | EC50 (human GLP2 receptor) [nM] | Emax (human GLP1 receptor) [%] | EC50 (human GLP1 receptor) [nM] | Emax (mouse GLP2 receptor; [2]) [%] | EC50 (mouse GLP2 receptor; [3]) [nM]
1 | CCCC[C@H](NC(=O)[C@H](CCC(=O)O)NC(=O)[C@H](CC(=O)O)NC(=O)[C@H](CO)NC(=O)[C@](C)(Cc1ccccc1F)NC(=O)[C@H](CO)NC(=O)CNC(=O)[C@H](Cc1nn[nH]n1)NC(=O)C(C)(C)C(=O)NCCc1c[nH]cn1)C(=O)N[C@H](Cc1ccccc1)C(=O)N[C@H]1CCC(=O)NCCCC[C@@H](C(=O)N[C@H]2CCC(=O)NCCCC[C@@H](C(=O)N[C@@H](CC(=O)O)C(=O)N[C@@H](Cc3ccccc3)C(=O)N[C@H](C(=O)N[C@H]3CCC(=O)NCCCC[C@@H](C(=O)N[C@H]4CCCCNC(=O)CC[C@@H](C(N)=O)NC(=O)[C@H]([C@@H](C)O)NC(=O)[C@H]([C@@H](C)CC)NC(=O)[C@H](CCCCN)NC4=O)NC(=O)[C@H]([C@@H](C)CC)NC(=O)[C@H](CC(C)C)NC(=O)[C@H](Cc4c[nH]c5ccccc45)NC3=O)[C@@H](C)CC)NC(=O)[C@H](C)NC(=O)[C@H](C)NC2=O)NC(=O)[C@H](CC(=O)O)NC(=O)[C@H](CC(C)C)NC(=O)[C@H]([C@@H](C)CC)NC1=O [Example 52] | 0.2 | 103 | 102 | 0.01 | 98.8 | 0.00251 | – | –
2 | CCCC[C@H](NC(=O)[C@H](CCC(=O)O)NC(=O)[C@H](CC(=O)O)NC(=O)[C@H](CO)NC(=O)[C@](C)(Cc1ccccc1F)NC(=O)[C@H](CO)NC(=O)CNC(=O)[C@H](Cc1nn[nH]n1)NC(=O)C(C)(C)C(=O)NCCc1c[nH]cn1)C(=O)N[C@H](Cc1ccccc1)C(=O)N[C@H]1CCC(=O)NCCCC[C@@H](C(=O)N[C@H]2CCCCNC(=O)C[C@@H](C(=O)N[C@@H](Cc3ccccc3)C(=O)N[C@H](C(=O)N[C@H]3CCC(=O)NCCCC[C@@H](C(=O)N[C@H]4CCCCNC(=O)CC[C@@H](C(N)=O)NC(=O)[C@H]([C@@H](C)O)NC(=O)[C@H]([C@@H](C)CC)NC(=O)[C@H](CCCCN)NC4=O)NC(=O)[C@H]([C@@H](C)CC)NC(=O)[C@H](CC(C)C)NC(=O)[C@H](Cc4c[nH]c5ccccc45)NC3=O)[C@@H](C)CC)NC(=O)[C@H](CCCCN)NC(=O)[C@H](C)NC(=O)[C@H](C)NC2=O)NC(=O)[C@H](CC(=O)O)NC(=O)[C@H](CC(C)C)NC(=O)[C@H]([C@@H](C)CC)NC1=O [Example 53] ({Malonyl(2,2-Me2,histaminyl)}-[Ala(1H-tetrazol-5-yl)]GS[αMePhe(2-F)]SDE[Nle][dF]EILDKKAAKDFIEWLIKKKITE-NH2; lactam 10-14, 15-19, 22-26, 27-31; C-terminus assumed) | – | – | 102 | 0.02 | 99.5 | 0.00501 | 103 | 0.631
3 | CCCC[C@@H]1NC(=O)[C@H](CCC(=O)O)NC(=O)[C@H](CC(=O)O)NC(=O)[C@@H](NC(=O)[C@H](Cc2ccccc2)NC(=O)[C@H](CO)NC(=O)CNC(=O)[C@H](CC(=O)O)NC(=O)C(C)(C)NC(=O)[C@@H](N)Cc2c[nH]cn2)CCC(=O)NCCCC[C@@H](C(=O)N[C@H]2CCC(=O)NCCCC[C@@H](C(=O)N[C@H]3CCCCNC(=O)C[C@@H](C(=O)N[C@@H](Cc4ccccc4)C(=O)N[C@H](C(=O)N[C@H]4CCC(=O)NCCCC[C@@H](C(=O)N[C@H]5CCCCNC(=O)CC[C@@H](C(N)=O)NC(=O)[C@H]([C@@H](C)O)NC(=O)[C@H]([C@@H](C)CC)NC(=O)[C@H](CCCCN)NC5=O)NC(=O)[C@H]([C@@H](C)CC)NC(=O)[C@H](CC(C)C)NC(=O)[C@H](Cc5c[nH]c6ccccc56)NC4=O)[C@@H](C)CC)NC(=O)[C@H](CCCCN)NC(=O)[C@H](C)NC(=O)[C@H](C)NC3=O)NC(=O)[C@H](CC(=O)O)NC(=O)[C@H](CC(C)C)NC(=O)[C@H]([C@@H](C)CC)NC2=O)NC1=O [Example 77] (H-H[Aib]DGSFEDE[Nle]KEILDKKAAKDFIEWLIKKKITE-NH2; lactam 7-11, 12-16, 17-21, 24-28, 29-33; N-terminus and C-terminus assumed) | – | – | 102 | 0.0631 | 97.1 | 0.501 | 102 | 3.16
4 | CCCC[C@@H]1NC(=O)[C@H](CCC(=O)O)NC(=O)[C@H](CC(=O)O)NC(=O)[C@@H](NC(=O)[C@H](Cc2ccccc2)NC(=O)[C@H](CO)NC(=O)CNC(=O)[C@H](CC(=O)O)NC(=O)C(C)(C)NC(=O)[C@@H](N)Cc2c[nH]cn2)CCC(=O)NCCCC[C@@H](C(=O)N[C@H]2CCC(=O)NCCCC[C@@H](C(=O)N[C@H]3CCC(=O)NCCCC[C@@H](C(=O)N[C@@H](CC(=O)O)C(=O)N[C@@H](Cc4ccccc4)C(=O)N[C@H](C(=O)N[C@H]4CCC(=O)NCCCC[C@@H](C(=O)N[C@H]5CCCCNC(=O)CC[C@@H](C(N)=O)NC(=O)[C@H]([C@@H](C)O)NC(=O)[C@H]([C@@H](C)CC)NC(=O)[C@H](CCCCN)NC5=O)NC(=O)[C@H]([C@@H](C)CC)NC(=O)[C@H](CC(C)C)NC(=O)[C@H](Cc5c[nH]c6ccccc56)NC4=O)[C@@H](C)CC)NC(=O)[C@H](C)NC(=O)[C@H](C)NC3=O)NC(=O)[C@H](CC(=O)O)NC(=O)[C@H](CC(C)C)NC(=O)[C@H]([C@@H](C)CC)NC2=O)NC1=O [Example 76] (H-H[Aib]DGSFEDE[Nle]KEILDKEAAKDFIEWLIKKKITE-NH2; lactam 7-11, 12-16, 17-20, 24-28, 29-33 (inferred)) | 1.26 | 102 | 102 | 0.0126 | 94.9 | 1 | – | –
5 | CCCC[C@H](NC(=O)[C@H](CCC(=O)O)NC(=O)[C@@H]1CCCCNC(=O)CC[C@H](NC(=O)[C@H](CC(=O)O)NC(=O)C(C)(C)NC(=O)[C@@H](N)Cc2c[nH]cn2)C(=O)N[C@@H](CO)C(=O)N[C@@H](Cc2ccccc2)C(=O)N[C@@H](CO)C(=O)N1)C(=O)N[C@H](Cc1ccccc1)C(=O)N[C@H]1CCC(=O)NCCCC[C@@H](C(=O)N[C@H]2CCCCNC(=O)C[C@@H](C(=O)N[C@@H](Cc3ccccc3)C(=O)N[C@H](C(=O)N[C@H]3CCC(=O)NCCCC[C@@H](C(=O)N[C@H]4CCCCNC(=O)CC[C@@H](C(N)=O)NC(=O)[C@H]([C@@H](C)O)NC(=O)[C@H]([C@@H](C)CC)NC(=O)[C@H](CCCCN)NC4=O)NC(=O)[C@H]([C@@H](C)CC)NC(=O)[C@H](CC(C)C)NC(=O)[C@H](Cc4c[nH]c5ccccc45)NC3=O)[C@@H](C)CC)NC(=O)[C@H](CCCCN)NC(=O)[C@H](C)NC(=O)[C@H](C)NC2=O)NC(=O)[C@H](CC(=O)O)NC(=O)[C@H](CC(C)C)NC(=O)[C@H]([C@@H](C)CC)NC1=O [Example 75] (H-H[Aib]DESFSKE[Nle][dF]EILDKKAAKDFIEWLIKKKITE-NH2; lactam 4-8, 12-16, 17-21, 24-28, 29-33 (inferred); C-terminus assumed) | – | – | 102 | 0.0398 | 95 | 0.631 | 81.9 | 6.31

Reference: patent publication US20240270809A1, “ORAL GLP RECEPTOR AGONISTS” (priority 2020, published 2024)
